Marks after values point to notes of the source that are not given here.
Tests used:
5α-reductase = experiment: Modulation of 5α-reductase activity (testosterone to DHT conversion, ELISA) in mouse fibroblasts after 48 hours of treatment; type: cell-based; details: for % inhibition of 5α-reductase / Total DHT ng (±SE) / Inhibition of 5α-reductase activity in vitro (result in words): 0.1 mg/ml, 48 hours; for % inhibition of 5α-reductase / Total DHT ng (±SE): pre-incubation for 24 hours with testosterone 10 ng/ml; for % inhibition of 5α-reductase: confidence interval; for Total DHT ng (±SE): final table; for Testosterone, cell extract / Testosterone, supernatant / DHT, cell extract / DHT, supernatant / Final DHT, cell extract / Final DHT, supernatant / Total DHT produced: sample 100 μg/ml; for Testosterone, cell extract / Testosterone, supernatant / DHT, cell extract / DHT, supernatant: 48 h; for Testosterone, cell extract: Balb/c-3T3; for Testosterone, supernatant: Balb/c-3T3 pre-incubated 24 h with testosterone 10 ng/ml; for DHT, cell extract / DHT, supernatant: uncorrected measured DHT; for Final DHT, cell extract: corrected for testosterone crosslinking; for Final DHT, supernatant: measured DHT minus bovine serum DHT minus testosterone crosslinking; for Total DHT produced: per flask (supernatant 10 ml + cell extract 0.5 ml); for Inhibition of 5α-reductase activity in vitro (result in words): mouse fibroblasts Balb/c-3T3, versus untreated control
Method: Assessment of the modulation of 5α-reductase activity after treatment for 48 hours with the above-stated compounds in a cell line of mouse fibroblasts.
For this test, the fibroblasts were pretreated with testosterone to increase the basal production of 5α-reductase, then they were treated with the above-mentioned compounds for 48 hours.
At the end of the treatment, the conversion of testosterone into DHT was measured in the treated and untreated cell cultures, using a two-way ELISA. This procedure enables an estimation of the percentage inhibition or stimulation of the specific activity of 5α-reductase.
As a positive control, we used a titrated extract of Serenoa repens (saw palmetto), a plant known in the pharmacopoeia for its capacity to inhibit 5α-reductase and recommended for said purpose in the treatment of prostatic hyperplasia in males.
The cell model used for the in vitro test consisted of mouse fibroblasts Balb/c-3T3. This cell line derives from fibroblasts of […] mouse embryos.
The samples of the above-described compounds were solubilised as follows: • 2,4,6-octatrien-1-ol: 1 mg/ml in absolute ethanol • alternative Boehmeria: 5 mg/ml in growth medium+5% DMSO • traditional Boehmeria: 2.5 mg/ml in growth medium+5% DMSO • Ajuga reptans extract: 5 mg/ml in growth medium+5% DMSO • Finasteride: 5 mg/ml in absolute ethanol • Serenoa repens: 10 μl/ml in absolute ethanol Treatment and Exposure Pre-Incubation
The cells were seeded in 25 cm^2 flasks (T25) in DMEM (Dulbecco's […]) with the addition of 10% FBS (foetal bovine serum). As soon as confluence was achieved, the cultures were treated for 24 hours with 10 ng/ml of testosterone.
After the pre-incubation phase, the cell cultures were treated with said samples at the final concentration of 0.1 mg/ml. The Serenoa repens extract at 0.1 mg/ml was used as a positive control, while the negative control consisted in plates treated with the solvent. Exposure was protracted for 48 hours in the incubator at 37° C., 5% CO2, renewing the medium every 24 hours. Each sample was tested in duplicate.
At the end of the experiment, a cell count was conducted to assess any cytotoxic effects. The of DHT and testosterone content was measured using immunodiagnostic tests (ELISA) in the extracellular (conditioned growth media) and in the intracellular (cell extracts) compartments.
At the end of the experiment, the growth medium was collected from each flask and a cell extract was prepared.
This was done in four stages: • trypsinisation of the cell layer in situ in the flask • centrifugation and collection of the cells in pellets • extraction with Triton X-100 (1% in basal medium) • ultrasonication for 30 minutes. DHT and Testosterone Measurement
The two hormones, DHT and testosterone, were measured both in the supernatant (extracellular DHT/testosterone) and in the cell extracts (intracellular DHT/testosterone).
It is therefore of fundamental importance to determine the quantity of testosterone remaining at the end of the test in order to distinguish it from the newly-synthesised DHT. Moreover, the presence of DHT in foetal bovine serum (FBS), the main component in the growth medium, represents a source of exogenous DHT that must be taken into account in calculating the DHT actually produced by the cells starting from the testosterone.
The method involves the composition of a standard curve, calculated in an appropriate range of concentrations, and uses specific antibodies immobilised on a solid substrate directed against DHT/testosterone, and a reagent that competes for binding to the antibody.

[1] = system: transplanted hair follicles; experiment: Further clinical study: topical scalp treatment around hair transplantation; type: in vivo, human; details: once a day from 15 days before to 90 days after the transplant
androgenetic alopecia = experiment: Clinical pilot study, Group 1: androgenetic alopecia, topical administration on the scalp; type: in vivo, human
Method: (§1) A clinical pilot study was also conducted to assess the efficacy of a composition according to the invention in the treatment of male and female androgenetic alopecia and alopecia greata.
(§2) In the composition according to the invention forming the object of this clinical study, said active principle was a salt, and a potassium salt in particular, of 2,4,6-octatrienoic acid, formulated for topical administration on the scalp, in a single daily dose.
Thirty individuals of both genders were recruited (15 males and 15 females) aged between 18 and 55 years, suffering from androgenetic alopecia (grades I-III according to the Hamilton scale for men, and I-II according to the Ludwig scale for women). Since this was a pilot study, an open trial was conducted, administering the composition of the invention.
Exclusion criteria from the study were as follows: • concomitant hormonal and/or pharmacological therapies; • pregnancy and breast-feeding; • systemic hormonal, metabolic and autoimmune diseases; • specific trichological treatments in the previous three months; • concomitant inflammatory diseases of the scalp, e.g. seborrhoeic dermatitis, irritative or allergic dermatitis.
The clinical and dermoscopic assessment of the individuals to treat focused on: hair shaft diameter, presence of a perifollicular halo, evaluation of the anagen phase by epiluminescence study of the bulb.
After the baseline assessment at T0, before starting the treatment, two evaluations after the treatment were conducted, one at T1 after 1 month, and one at T2 after 3 months.
At each follow-up assessment, a clinical evaluation was performed using epiluminescence to establish the hair shaft diameter in a previously-established and marked area (MoleMax II, Dermal Instruments Italia).

alopecia greata = experiment: Clinical pilot study, group with alopecia greata (area celsi), topical administration on the scalp; type: in vivo, human
Method: as §1, §2
Alopecia greata (also called area celsi) is a disease involving sudden hair loss typically giving rise to bald patches (or areas).
A significant characteristic of the evolutional stages of alopecia greata is the presence of “exclamation mark” hairs, so called because they appear tapered towards the base.
For the group of individuals treated, the pilot study only enabled us to identify a trend (clinical improvement, stability, worsening) within the short time span considered, i.e. from the baseline T0 before starting the treatment up to T2 after three months of treatment, based on the following parameters: • hair loss • progression of bald patches on the scalp • presence of exclamation mark hairs Results

[2] = T2 after 3 months, mean at T0 0.4 mm
[3] = T2 after 3 months, mean at T0 56%
[4] = single daily topical dose, epiluminescence, follow-up to T2 (3 months)
[5] = T0 to T2 (three months of treatment)

C/C=C/C=C/C=C/CO [2,4,6-octatrien-1-ol, 2E,4E,6E-Octatrien-1-ol]
% inhibition of 5α-reductase (5α-reductase): 27-43% | Total DHT ng (±SE) (5α-reductase): 2.3 (±0.1) ng | Testosterone, cell extract (5α-reductase): 1 ng/mL | Testosterone, supernatant (5α-reductase): 1.25 ng/mL | DHT, cell extract (5α-reductase): 450 pg/mL | DHT, supernatant (5α-reductase): 425 pg/mL | Final DHT, cell extract (5α-reductase): 363 pg/mL | Final DHT, supernatant (5α-reductase): 216 pg/mL | Total DHT produced (5α-reductase): 2.34 ng

2,4,6-octatrienoic acid salt
Prevention of premature apoptosis and catagen in transplanted hair follicles (result in words) [1]: promising

CC=CC=CC=CC(=O)[O-].[K+] [potassium salt of 2,4,6-octatrienoic acid]
Individuals treated with androgenetic alopecia parameters modified in a globally positive manner (androgenetic alopecia; 3 months topical treatment): 83% | Hair shaft diameter at T2, Group A) (androgenetic alopecia; [2]): 0.7 mm | Hair shaft diameter at T2, Group B) (androgenetic alopecia; [2]): 0.6 mm | Hair shaft diameter at T2, Group C) (androgenetic alopecia; [2]): 0.4 mm | Percentage of bulbs in the anagen phase at T2, Group A) (androgenetic alopecia; [3]): 83% | Percentage of bulbs in the anagen phase at T2, Group B) (androgenetic alopecia; [3]): 74% | Percentage of bulbs in the anagen phase at T2, Group C) (androgenetic alopecia; [3]): 61% | Side effects after using the product (androgenetic alopecia; androgenetic alopecia group): None of the individuals showed any side effects | Cases with increase in hair shaft diameter judged highly significant (A) (androgenetic alopecia; [4]): 62% | Cases with increase in hair shaft diameter judged not significant (C) (androgenetic alopecia; [4]): 17% | Cases with increase in hair shaft diameter judged significant (B) (androgenetic alopecia; [4]): 21% | Individuals in whom defluvium of hair in the affected areas diminished (alopecia greata; [5]): 55% | Individuals with stabilisation of the bald patches (alopecia greata; [5]): 15% | Individuals with stoppage in the progression and slight reduction in the extent of the bald patches (alopecia greata; [5]): 43% | Number of exclamation mark hairs at T2, individuals with stabilisation or slight improvement in bald patches (alopecia greata; T2, mean 82% at T0): 46% | Number of exclamation mark hairs at T2, individuals with worsening bald patches (alopecia greata; T2, mean 83% at T0): 82% | Side effects after using the product (alopecia greata; alopecia greata group): None of the individuals revealed any side effects | Individuals treated with global trend towards an improvement (clinical improvement and stabilisation of the bald patches) (alopecia greata; three months of treatment): 58%

CC(C)(C)NC(=O)[C@H]1CC[C@H]2[C@@H]3CC[C@H]4NC(=O)C=C[C@]4(C)[C@H]3CC[C@]12C [Finasteride]
Inhibition of 5α-reductase activity in vitro (result in words) (5α-reductase): no significant inhibitory effect | Inhibition of 5α-reductase activity in vitro (result in words) (5α-reductase; listed as finasteride): no real inhibitory effect | % inhibition of 5α-reductase (5α-reductase): 0-15* % | Total DHT ng (±SE) (5α-reductase): 3.6 (±0.3) ng | Testosterone, cell extract (5α-reductase): 3.1 ng/mL | Testosterone, supernatant (5α-reductase): 0 ng/mL | DHT, cell extract (5α-reductase): 400 pg/mL | DHT, supernatant (5α-reductase): 450 pg/mL | Final DHT, cell extract (5α-reductase): 130 pg/mL | Final DHT, supernatant (5α-reductase): 350 pg/mL | Total DHT produced (5α-reductase): 3.57 ng
